Laboratory results reported in patent US11142520B2, “LDHA activity inhibitors” (ARCTIC PHARMA AS, priority 2017, dated 2021).

Tests used:
LDHA [1] = molecular target: T1, LDHA (Homo sapiens (Human), UniProt P00338); test: Coupled diaphorase assay, LDHA; format: biochemical; settings: lactate to pyruvate direction, 4-7 nM LDHA
Source text: (§1) The inhibitory properties of the compounds were investigated using a coupled enzyme assay that links the lactate dehydrogenase (LDH) reaction to the production of fluorescent resorutin by diaphorase.
(§2) Human lactate dehydrogenases (LDH) catalyze the reversible interconversion between pyruvate and lactate. LDH is capable of catalyzing both the forward (pyruvate to lactate) and the reverse (lactate to pyruvate) reaction, using either NADH or NAD^+ as a cofactor. The reaction proceeds in either direction dependent on various factors, such as substrate availability, the presence of necessary cofactors, temperature and pH. Different isoforms (LDH A, B, and C) of the enzyme favor different reaction directions—LDHA prefers the conversion from pyruvate to lactate, whereas LDHB preferentially oxidizes lactate to pyruvate.
The coupled assay relies on the oxidation of NAD^+ to NADH throughout the conversion of lactate to pyruvate by LDH (isoforms A, B and C). The produced NADH serves as cofactor in the diaphorase reaction, which reduces non-fluorescent resazurin to fluorescent resorufin. Therefore, the assay indirectly monitors the rate of pyruvate production. Although the consumption of NADH can be directly monitored due to the intrinsic fluorescence of the molecule (excitation: 340 nm, emission: 460 nm) there are problems linked to the direct readout method. […] Shifting the assay to longer wavelengths by coupling the LDH reaction to the conversion of resazurin to fluorescent resorufin by diaphorase reduces this compound interference. The assay direction was thus chosen to provide a robust and reliable assay. […]
Compounds were tested in duplicates using 2-fold, 3-fold or 4-fold serial dilutions including 11 individual concentrations, starting from 5000 μM to 30 μM. […] The controls allowed for the calculation of the percentage inhibition for each data point. […] Enzyme solution leading to final concentrations of 4-7 nM LDHA or 6 nM LDHB, as well as 0.2 U/ml diaphorase in the reaction well was dispensed into 384-well plates (Greiner bio-one) using a CyBi®-SELMA robotic pipettor. Compound dilutions and the enzyme were incubated for at least 20 min at room temperature. […] The reaction was quenched by the addition of a stop solution (final concentrations: 20 mM EDTA, 400 mM NaCl, 40 mM pyruvate). Fluorescence was read out after 5 min of incubation at an excitation wavelength of 560 nm and an emission wavelength of 590 nm on a Perkin Elmer Victor X plate reader. […]
(§3) Fluorescence data was normalized to DMSO and inhibition controls resulting in percentage inhibition for every compound concentration. Dose response curves were fitted in KaleidaGraph (www.synergy.com) or Dotmatics software package (www.dotmatics.com) using a standard 4-parameter fit (Levenberg-Marquardt fitting procedure), resulting in IC50 values for the test compounds.

LDHB = LDHB (Homo sapiens (Human), UniProt P07195); test: Coupled diaphorase assay, LDHB; format: biochemical; settings: lactate to pyruvate direction, 6 nM LDHB
LDHB, sequence (P07195 whole entry): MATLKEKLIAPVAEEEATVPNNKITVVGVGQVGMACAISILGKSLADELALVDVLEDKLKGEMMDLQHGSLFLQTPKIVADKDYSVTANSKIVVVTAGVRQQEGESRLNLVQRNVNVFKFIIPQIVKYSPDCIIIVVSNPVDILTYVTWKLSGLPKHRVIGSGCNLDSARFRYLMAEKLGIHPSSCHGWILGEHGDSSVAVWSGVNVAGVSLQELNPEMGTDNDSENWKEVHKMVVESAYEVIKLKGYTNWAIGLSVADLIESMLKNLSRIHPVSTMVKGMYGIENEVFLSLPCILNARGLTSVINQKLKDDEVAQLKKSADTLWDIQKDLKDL
Source text: as §1, §2
The coupled assay relies on the oxidation of NAD^+ to NADH throughout the conversion of lactate to pyruvate by LDH (isoforms A, B and C). The produced NADH serves as cofactor in the diaphorase reaction, which reduces non-fluorescent resazurin to fluorescent resorufin. Therefore, the assay indirectly monitors the rate of pyruvate production. Although the consumption of NADH can be directly monitored due to the intrinsic fluorescence of the molecule (excitation: 340 nm, emission: 460 nm) there are problems linked to the direct readout method. […] Shifting the assay to longer wavelengths by coupling the LDH reaction to the conversion of resazurin to fluorescent resorufin by diaphorase reduces this compound interference. The assay direction was thus chosen to provide a robust and reliable assay.
Applying the LDHA reaction in the preferred direction for the conversion of pyruvate to lactate under oxidation of NADH to NAD^+ would necessitate running the LDHA reaction to about 80% completion and adding the diaphorase assay reagents afterwards in order to avoid enzyme competition for NADH.
The controls allowed for the calculation of the percentage inhibition for each data point. […] Enzyme solution leading to final concentrations of 4-7 nM LDHA or 6 nM LDHB, as well as 0.2 U/ml diaphorase in the reaction well was dispensed into 384-well plates (Greiner bio-one) using a CyBi®-SELMA robotic pipettor. Compound dilutions and the enzyme were incubated for at least 20 min at room temperature. […] The reaction was quenched by the addition of a stop solution (final concentrations: 20 mM EDTA, 400 mM NaCl, 40 mM pyruvate). Fluorescence was read out after 5 min of incubation at an excitation wavelength of 560 nm and an emission wavelength of 590 nm on a Perkin Elmer Victor X plate reader. […]
as §3

LDHA [2] = molecular target: T1, LDHA; test: Isothermal titration calorimetry (ITC); format: binding; settings: 25° C., NADH 1 mM
Method: ITC experiments were performed using a MicorCal PEAQ ITC instrument. Prior to the experiments, LDHA was dialyzed against 50 mM potassium phosphate buffer pH 7.4, 150 mM NaCl, 0.002% pluronic acid F-127 at 4° C. overnight using mini dialysis kits from GE Healthcare. The tested compounds were dissolved to 100 mM in DMSO. After dialysis, the protein was centrifuged at 14,000 rpm at 4° C. for 30 min. Buffer and MilliQ water for the reference cell were degassed prior to use. Protein concentration was determined by A280 nm measurements using a Nanodrop. All ITC experiments were conducted at 25° C. with stirring at 750 rpm. In a typical experiment the compound of interest was loaded into the sample cell at 20 μM and LDHA (200 μM in syringe) was titrated to the compound solution in consecutive injections. NADH (1 mM) and DMSO concentrations (2%) were matched in all solutions. Data were analyzed using the MicroCal PEAQ-ITC analysis software and fitted to a single site binding model, resulting in binding constant Kd, enthalpy ΔH, entropy ΔS and the stoichiometry N.

[3] = system: MIA PaCa-2 human pancreatic cells; settings: MIA PaCa-2 cells; cited from earlier work
LDH = settings: in vitro; cited from earlier work

Row | IC50 (LDHA [1]) [µM] | IC50 (LDHB) [µM] | SMILES | other results
1 | > 100 | > 100 | CC(C)COC(=O)OC1=C(Sc2ccc(F)cc2Cl)C(=O)NC(c2ccc(N3CCOCC3)cc2)(c2ccsc2)C1 (centres unmarked) [Example 32, 5-((2-chloro-4-fluorophenyl)thio)-2-(4-morpholinophenyl)-6-oxo-2-(thiophen-3-yl)-1,2,3,6-tetrahydropyridin-4-yl iso-butyl carbonate] | –
2 | 0.5 to 10 | > 100 | COCCOC(=O)OC1=C(Sc2ccc(F)cc2Cl)C(=O)NC(c2ccc(N3CCOCC3)cc2)(c2ccsc2)C1 (centres unmarked) [Example 33, 5-((2-chloro-4-fluorophenyl)thio)-2-(4-morpholinophenyl)-6-oxo-2-(thiophen-3-yl)-1,2,3,6-tetrahydropyridin-4-yl (2-methoxyethyl) carbonate] | –
3 | 10 to 50 | > 100 | O=C1CC(c2ccsc2)(c2cccc(Br)n2)NC(=O)C1Sc1ccc(F)cc1Cl (centres unmarked) [Example 2, 6-(6-bromopyridin-2-yl)-3-[(2-chloro-4-fluorophenyl)sulfanyl]-6-(thiophen-3-yl)piperidine-2,4-dione] | –
4 | 10 to 50 | > 100 | O=C1CC(c2ccsc2)(c2cccc(OCC3CCCC3)n2)NC(=O)C1Sc1ccc(Cl)cc1Cl (centres unmarked) [Example 1, 6-[6-(cyclopentylmethoxy)pyridin-2-yl]-3-[(2,4-dichlorophenyl)sulfanyl]-6-(thiophen-3-yl)piperidine-2,4-dione] | –
5 | 10 to 50 | > 100 | O=C1CC(c2ccsc2)(c2cccc(OCC3CCCC3)n2)NC(=O)C1Sc1cccc(Cl)c1Cl (centres unmarked) [Example 7, 6-[6-(cyclopentylmethoxy)pyridin-2-yl]-3-[(2,3-dichlorophenyl)sulfanyl]-6-(thiophen-3-yl)piperidine-2,4-dione] | –
6 | > 100 | > 100 | COCCOC(=O)OC1=C(Sc2ccc(Cl)cc2Cl)C(=O)NC(c2ccsc2)(c2cccc(OCC3CCCC3)n2)C1 (centres unmarked) [Example 22, 6′-(cyclopentylmethoxy)-5-((2,4-dichlorophenyl)thio)-6-oxo-2-(thiophen-3-yl)-1,2,3,6-tetrahydro-[2,2′-bipyridin]-4-yl (2-methoxyethyl) carbonate] | –
7 | 0.1 to 0.5 | – | O=C1CC(c2ccsc2)(c2cccc(OCC3CCCC3)n2)NC(=O)C1Sc1cc(Cl)ccc1Cl (centres unmarked) [Example 5, 6-[6-(cyclopentylmethoxy)pyridin-2-yl]-3-[(2,5-dichlorophenyl)sulfanyl]-6-(thiophen-3-yl)piperidine-2,4-dione] | -TΔS (LDHA [2]): 4.06 kcal/mol; Kd (LDHA [2]): 0.671 µM; N (stoichiometry) (LDHA [2]): 0.548; ΔH (LDHA [2]): -4.35 kcal/mol
8 | – | – | O=C1CC(c2ccc(N3CCOCC3)cc2)(c2ccsc2)NC(=O)C1Sc1ccccc1Cl (centres unmarked) [Example 24, 3-((2-chlorophenyl)thio)-6-(4-morpholinophenyl)-6-(thiophen-3-yl)piperidine-2,4-dione] | time of continuous LDHA inhibition until cell death occurred [3]: ≥ 2 days
9 | 0.1 to 0.5 | – | O=C1CC(c2ccc(N3CCOCC3)cc2)(c2ccsc2)NC(=O)C1Sc1cc(Cl)ccc1Cl (racemic) [Example 10, 3-((2,5-dichlorophenyl)thio)-6-(4-morpholinophenyl)-6-(thiophen-3-yl)piperidine-2,4-dione] | -TΔS (LDHA [2]): 0.944 kcal/mol; Kd (LDHA [2]): 0.0432 µM; N (stoichiometry) (LDHA [2]): 0.796; ΔH (LDHA [2]): -11 kcal/mol
10 | 0.5 to 10 | > 100 | O=C1CC(c2ccsc2)(c2cccc(OCC3CCCC3)n2)NC(=O)C1Sc1ccc(F)cc1Cl (centres unmarked) [Example 3, 3-[(2-chloro-4-fluorophenyl)sulfanyl]-6-[6-(cyclopentylmethoxy)pyridin-2-yl]-6-(thiophen-3-yl)piperidine-2,4-dione] | -TΔS (LDHA [2]): 5.11 kcal/mol; Kd (LDHA [2]): 0.373 µM; N (stoichiometry) (LDHA [2]): 0.721; ΔH (LDHA [2]): -3.68 kcal/mol
11 | > 100 | > 100 | COCCOC(=O)OC1=C(Sc2ccc(Cl)cc2Cl)C(=O)NC(c2ccc(N3CCOCC3)cc2)(c2ccsc2)C1 (centres unmarked) [Example 30, 5-((2,4-dichlorophenyl)thio)-2-(4-morpholinophenyl)-6-oxo-2-(thiophen-3-yl)-1,2,3,6-tetrahydropyridin-4-yl (2-methoxyethyl) carbonate] | –
12 | – | – | NC(=O)C(=O)O [Oxamate] | concentration range that inhibits LDH enzyme activity (LDH): mM range
13 | > 100 | > 100 | O=C1CC(c2ccsc2)(c2cccc(Br)n2)NC(=O)C1Sc1cccc(Cl)c1Cl (centres unmarked) [Example 6, 6-(6-bromopyridin-2-yl)-3-[(2,3-dichlorophenyl)sulfanyl]-6-(thiophen-3-yl)piperidine-2,4-dione] | –
14 | 50 to 100 | > 100 | O=C1CC(c2ccc(N3CCOCC3)cc2)(c2ccsc2)NC(=O)C1Sc1ccc(Cl)cc1Cl (centres unmarked) [Example 29, 3-((2,4-dichlorophenyl)thio)-6-(4-morpholinophenyl)-6-(thiophen-3-yl)piperidine-2,4-dione] | –
15 | 0.5 to 10 | 0.5 to 10 | O=C1CC(c2cnc(N3CCOCC3)nc2)(c2ccsc2)OC(=O)C1Sc1ccccc1Cl (centres unmarked) [Example 23, 3-((2-chlorophenyl)thio)-6-(2-morpholinopyrimidin-5-yl)-6-(thiophen-3-yl)dihydro-2H-pyran-2,4(3H)-dione] | –
